Tested on: P388 lymphoplastic leukemia
Experiment: Combined therapy DDP+GMDP-A in the P388 lymphoplastic leukemia model
Format: in vivo, mice BDF1
Settings: for Tumor volume / tumor growth inhibition (TGI) / Average life time / ILT (increase of the animal life time) / Metastasis MF (tumor metastasis frequency) / Metastasis MI (metastasis inhibition rate): DDP, if given, single 4 mg/kg i.v.
[1] = day 7, early start (1st day), 5-fold GMDP-A 3.75 mg/kg s.c.
[2] = day 7, early start (1st day), 10-fold GMDP-A 3.75 mg/kg s.c.
[3] = day 7, early start (1st day), 21-fold GMDP-A 3.75 mg/kg s.c.
[4] = day 7, late start (5th day), 5-fold GMDP-A 3.75 mg/kg s.c.
[5] = day 7, late start (5th day), 10-fold GMDP-A 3.75 mg/kg s.c.
[6] = day 9, early start (1st day), 5-fold GMDP-A 3.75 mg/kg s.c.
[7] = day 9, early start (1st day), 10-fold GMDP-A 3.75 mg/kg s.c.
[8] = day 9, early start (1st day), 21-fold GMDP-A 3.75 mg/kg s.c.
[9] = day 9, late start (5th day), 5-fold GMDP-A 3.75 mg/kg s.c.
[10] = day 9, late start (5th day), 10-fold GMDP-A 3.75 mg/kg s.c.
[11] = day 12, early start (1st day), 5-fold GMDP-A 3.75 mg/kg s.c.
[12] = day 12, early start (1st day), 10-fold GMDP-A 3.75 mg/kg s.c.
[13] = day 12, early start (1st day), 21-fold GMDP-A 3.75 mg/kg s.c.
[14] = day 12, late start (5th day), 5-fold GMDP-A 3.75 mg/kg s.c.
[15] = day 12, late start (5th day), 10-fold GMDP-A 3.75 mg/kg s.c.
[16] = day 14, early start (1st day), 5-fold GMDP-A 3.75 mg/kg s.c.
[17] = day 14, early start (1st day), 10-fold GMDP-A 3.75 mg/kg s.c.
[18] = day 14, early start (1st day), 21-fold GMDP-A 3.75 mg/kg s.c.
[19] = day 14, late start (5th day), 5-fold GMDP-A 3.75 mg/kg s.c.
[20] = day 14, late start (5th day), 10-fold GMDP-A 3.75 mg/kg s.c.
[21] = day 19, early start (1st day), 5-fold GMDP-A 3.75 mg/kg s.c.
[22] = day 19, early start (1st day), 10-fold GMDP-A 3.75 mg/kg s.c.
[23] = day 19, early start (1st day), 21-fold GMDP-A 3.75 mg/kg s.c.
[24] = day 19, late start (5th day), 5-fold GMDP-A 3.75 mg/kg s.c.
[25] = day 19, late start (5th day), 10-fold GMDP-A 3.75 mg/kg s.c.
[26] = early start (1st day), 5-fold GMDP-A 3.75 mg/kg s.c.
[27] = early start (1st day), 10-fold GMDP-A 3.75 mg/kg s.c.
[28] = early start (1st day), 21-fold GMDP-A 3.75 mg/kg s.c.
[29] = late start (5th day), 5-fold GMDP-A 3.75 mg/kg s.c.

Protocol: They were transplanted on the right-side surface of the animal body.
The animals with tumors were treated in test groups at the early (24 hours after tumor inoculation) and late (5 days after tumor inoculation) terms of the tumor growth using a single cytostatic injection intravenously in a dose equal to ½ or ¼ of therapeutic one and various schedules for GMDP-A injection: • Primary subcutaneous injection of GMDP-A modifier in a single dose 3.75 mg/kg; • Repeated protracted subcutaneous administration of GMDP-A modifier according to different schedules: 4-fold, 9-fold and 20-fold, once per day, in a single dose of 3.75 mg/kg (course dose is 18.75 mg/kg, 37.5 mg/kg and 78.75 mg/kg, correspondingly). Dosage frequency depends upon the model (histological form of transplanted tumor).
To identify efficiency of the claimed combined therapy, independent medication was carried out as a control after tumor inoculation using one component of binary therapy-cytostatic drug or a modifier. Cytostatic was injected intravenously in amount of ½ or ¼ of therapeutic dose once after 24 hours or 5 days after tumor inoculation; GMDP-A modifier was administered subcutaneously in a single dose of 3.75 mg/kg 5-fold from the 1st day to the 5th day or from the 5th day to the 9th day, or 10-fold from the 1st day to the 10th day or from the 5th day to the 14th day, or 21-fold from the 1st day to the 21st day after tumor inoculation.
Anti-tumor efficiency of the claimed combined therapy and comparative monotherapy using only a cytostatic or only GMDP-A modifier was assessed by the criteria commonly used in experimental oncology: tumor volume (TV), tumor growth inhibition (TGI), increase of the animal life time (ILT), tumor metastasis frequency (MF), metastasis inhibition rate (MI).
Efficiency of the combined therapy—chemotherapy with cisplatin cytostatic (DDP) and bioherapy with GMDP-A was assessed on P388 lymphoplastic leukemia model inoculated to mice BDF1, females, subcutaneously on the right-side body surface.
GMDP-A was administered to mice subcutaneously as a single dose of 3.75 mg/kg every day with different schedules: • Five-fold (total dose is 18.75 mg/kg) on the 1st day to the 5th day or on the 5th day to the 9th day after tumor inoculation; • Ten-fold (total dose is 37.5 mg/kg) on the 1st day to the 10th day or on the 5th day to the 14th day after tumor inoculation; • Twenty-one-fold (total dose is 78.75 mg/kg) on the 1st day to the 21st st day after tumor inoculation.
DDP (Cisplatin, Cisplatin Teva trade mark, manufacturer is Teva Pharmaceutical Industries Ltd., Israel, fabricated at Pharmachemie B.V., the Netherlands) was administered intravenously as a single dose ma 4 mg/kg (½ of therapeutic dose).

CC(=O)NC1C(OC2C(CO)OC(O)C(NC(C)=O)C2OC(C)C(=O)NC(C)C(=O)NC(CCC(=O)O)C(=O)O)OC(CO)C(O)C1O [GMDP-A, N-acetyl-D-glucosaminyl-β-(1-4)-N-acetylmuramyl-L-alanyl-D-glutamic acid]
Tumor volume [1]: 45 ± 2 mm^3
tumor growth inhibition (TGI) [1]: 51%
Tumor volume [2]: 66.6 ± 6 mm^3
tumor growth inhibition (TGI) [2]: 37%
Tumor volume [3]: 73.5 ± 4.8 mm^3
tumor growth inhibition (TGI) [3]: 30%
Tumor volume [4]: 63 ± 12 mm^3
tumor growth inhibition (TGI) [4]: 31%
Tumor volume [5]: 86.5 ± 5.9 mm^3
tumor growth inhibition (TGI) [5]: 18%
Tumor volume [6]: 124 ± 7 mm^3
tumor growth inhibition (TGI) [6]: 36%
Tumor volume [7]: 108.6 ± 14.2 mm^3
tumor growth inhibition (TGI) [7]: 24%
Tumor volume [8]: 120.6 ± 12.5 mm^3
tumor growth inhibition (TGI) [8]: 16%
Tumor volume [9]: 107 ± 18 mm^3
tumor growth inhibition (TGI) [9]: 45%
Tumor volume [10]: 105 ± 9 mm^3
tumor growth inhibition (TGI) [10]: 26%
Tumor volume [11]: 204 ± 54 mm^3
tumor growth inhibition (TGI) [11]: 6%
Tumor volume [12]: 187.3 ± 27.4 mm^3
tumor growth inhibition (TGI) [12]: 4%
Tumor volume [13]: 159.0 ± 14.7 mm^3
tumor growth inhibition (TGI) [13]: 18%
Tumor volume [14]: 172 ± 51 mm^3
tumor growth inhibition (TGI) [14]: 21%
Tumor volume [15]: 163.8 ± 13.5 mm^3
tumor growth inhibition (TGI) [15]: 16%
Tumor volume [16]: 257 ± 24 mm^3
tumor growth inhibition (TGI) [16]: 16%
Tumor volume [17]: 245.3 ± 30.5 mm^3
tumor growth inhibition (TGI) [17]: 9%
Tumor volume [18]: 200.7 ± 17.3 mm^3
tumor growth inhibition (TGI) [18]: 25%
Tumor volume [19]: 257 ± 53 mm^3
tumor growth inhibition (TGI) [19]: 16%
Tumor volume [20]: 242.4 ± 18.3 mm^3
tumor growth inhibition (TGI) [20]: 10%
Tumor volume [21]: 318 ± 42 mm^3
tumor growth inhibition (TGI) [21]: 6%
Tumor volume [22]: 566.9 ± 50.2 mm^3
tumor growth inhibition (TGI) [22]: 11%
Tumor volume [23]: 432.1 ± 67.9 mm^3
tumor growth inhibition (TGI) [23]: 32%
Tumor volume [24]: 302 ± 103 mm^3
tumor growth inhibition (TGI) [24]: 11%
Tumor volume [25]: 510.1 ± 46.6 mm^3
tumor growth inhibition (TGI) [25]: 20%
Average life time [26]: 22 ± 1.2 days
ILT (increase of the animal life time) [26]: 21%
Average life time [27]: 24 ± 0.5 days
ILT (increase of the animal life time) [27]: 0%
Metastasis MF (tumor metastasis frequency) [27]: 100%
Metastasis MI (metastasis inhibition rate) [27]: 10%
Average life time [28]: 23 ± 1.6 days
ILT (increase of the animal life time) [28]: −4%
Metastasis MF (tumor metastasis frequency) [28]: 100%
Metastasis MI (metastasis inhibition rate) [28]: 22%
efficiency for individual use (without chemotherapy) (example 1): did not reach a biologically significant level
Average life time [29]: 20 ± 0.9 days
ILT (increase of the animal life time) [29]: 7%
Average life time (late start (5th day), 10-fold GMDP-A 3.75 mg/kg s.c.): 24 ± 0.8 days

Source: patent publication US20170290882A1, “Specific Combined Therapy of Malignant Tumors with a Cytostatic and Its Modifier” (priority 2015, published 2017)
